Results published in ChEMBL document CHEMBL4229354, “Synthesis, antiamoebic activity and docking studies of metronidazole-triazole-styryl hybrids” (Eur J Med Chem, 2018).

How the values were obtained:
Entamoeba histolytica = test: Antiamoebic activity against trophozoite stage of Entamoeba histolytica HM-1:IMSS measured after 72 hrs by microdilution method; type: functional, organism-based
Vero = test: Cytotoxicity against African green monkey Vero cells up to 50 uM; type: cell-based; conditions: chlorocebus sabaeus

IC50 (Entamoeba histolytica) [µM] | Compound | Activity (Vero)
0.35 | O=[N+]([O-])c1cnc(/C=C/c2ccc(Cl)cc2)n1CCn1cc(COc2ccccc2)nn1 | Non-Toxic
4.18 | CCc1ccc(/C=C/c2ncc([N+](=O)[O-])n2CCn2cc(CO)nn2)cc1 | –
0.18 | O=[N+]([O-])c1cnc(/C=C/c2ccc(F)cc2)n1CCn1cc(CO)nn1 | Non-Toxic
1.12 | O=[N+]([O-])c1cnc(/C=C/c2ccccc2)n1CCn1cc(CO)nn1 | Non-Toxic
1.22 | O=[N+]([O-])c1cnc(/C=C/c2ccc(Cl)cc2)n1CCn1cc(-c2ccccc2)nn1 | Non-Toxic
0.29 | O=[N+]([O-])c1cnc(/C=C/c2ccc(Cl)cc2)n1CCn1cc(-c2ccccn2)nn1 | Non-Toxic
2.13 | Cc1ccc(/C=C/c2ncc([N+](=O)[O-])n2CCn2cc(CO)nn2)cc1 | –
1.11 | O=[N+]([O-])c1cnc(/C=C/c2ccc(Cl)cc2)n1CCn1cc(CO)nn1 | Non-Toxic
1.65 | O=[N+]([O-])c1cnc(/C=C/c2ccc(Br)cc2)n1CCn1cc(CO)nn1 | –

The remaining lines, values behind:

Compound | IC50 (Entamoeba histolytica) [µM] | Activity (Vero)
O=[N+]([O-])c1cnc(/C=C/c2ccc(F)cc2)n1CCn1cc(COc2ccccc2)nn1 | 0.28 | Non-Toxic
O=[N+]([O-])c1cnc(/C=C/c2ccc(Br)cc2)n1CCn1cc(-c2ccccn2)nn1 | 1.1 | Non-Toxic
O=[N+]([O-])c1cnc(/C=C/c2ccccc2)n1CCn1cc(-c2ccccc2)nn1 | 1.35 | Non-Toxic
O=[N+]([O-])c1cnc(/C=C/c2ccc(F)cc2)n1CCn1cc(-c2ccccc2)nn1 | 0.12 | Non-Toxic
O=[N+]([O-])c1cnc(/C=C/c2ccccc2)n1CCn1cc(COc2ccccc2)nn1 | 3.56 | –
O=[N+]([O-])c1cnc(/C=C/c2ccc(F)cc2)n1CCn1cc(-c2ccccn2)nn1 | 0.13 | Non-Toxic
O=[N+]([O-])c1cnc(/C=C/c2ccc(Br)cc2)n1CCn1cc(COc2ccccc2)nn1 | 1.68 | –
Cc1ccc(/C=C/c2ncc([N+](=O)[O-])n2CCn2cc(-c3ccccn3)nn2)cc1 | 6.01 | –
Cc1ccc(/C=C/c2ncc([N+](=O)[O-])n2CCn2cc(-c3ccccc3)nn2)cc1 | 2.51 | –
Cc1ccc(/C=C/c2ncc([N+](=O)[O-])n2CCn2cc(COc3ccccc3)nn2)cc1 | 5.38 | –
O=[N+]([O-])c1cnc(/C=C/c2ccccc2)n1CCn1cc(-c2ccccn2)nn1 | 5.13 | –
O=[N+]([O-])c1cnc(/C=C/c2ccc(Br)cc2)n1CCn1cc(-c2ccccc2)nn1 | 1.77 | –
CCc1ccc(/C=C/c2ncc([N+](=O)[O-])n2CCn2cc(-c3ccccc3)nn2)cc1 | 4.68 | –
